Reference: PubChem BioAssay AID2048 (NMMLSC, 2009)
Activity calls are given as the source filed them.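 How the source made its calls: active means EC50 at most 30 µM plus a dose-response curve spanning at least 25% response; inactive means the rest.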

molecular target: Ras-related C3 botulinum toxin substrate 1 (Homo sapiens) (UniProt P63000); assay: activated mutant Rac1 GTP binding inhibitors, SAR follow-up, biochemical, pyrazoline analogs, multiplex bead flow cytometry (AID 2048); conditions: Bead-based flow cytometry, Bodipy-FL-GTP binding to GST-Rac1

SMILES	EC50
COc1ccc(C2=NN(c3ccc(S(N)(=O)=O)cc3)C(c3ccc(OC)cc3)C2)cc1 (stereo not given)	inactive
COc1ccc(C2CC(c3ccsc3)=NN2c2ccc(S(N)(=O)=O)cc2)cc1 (stereo not given)	inactive
COc1ccc(C2=NN(c3ccccc3F)C(c3ccc(F)cc3)C2)cc1 (stereo not given)	inactive
COc1ccc(C2CC(c3cccs3)=NN2c2ccc(S(N)(=O)=O)cc2)cc1 (stereo not given)	inactive
COc1ccc(-c2cc(-c3ccccc3)nn2-c2ccc(S(N)(=O)=O)cc2)cc1	inactive
COc1cccc(C2CC(c3ccccc3)=NN2c2ccc(S(N)(=O)=O)cc2)c1 (stereo not given)	inactive
COc1ccc(C2CC(c3ccccc3)=NN2c2ccc(Cl)c(C(=O)O)c2)cc1 (stereo not given)	inactive
COc1ccc(C2CC(C)=NN2c2ccc(S(N)(=O)=O)cc2)cc1 (stereo not given)	inactive
O=S(=O)(c1ccc(N2N=C(c3ccccc3)CC2c2ccccc2)cc1)C(F)F (stereo not given)	inactive
COc1ccc(C2CC(c3ccc(Cl)cc3)=NN2c2ccc(S(N)(=O)=O)cc2)cc1 (stereo not given)	inactive
Cc1ccccc1N1N=C(c2ccccc2)CC1c1cccc([N+](=O)[O-])c1 (stereo not given)	inactive
COc1ccc(C2CC(c3ccccc3)=NN2c2ccc(S(N)(=O)=O)cc2)cc1OC (stereo not given)	inactive
CC(=O)Oc1ccc(C2=NN(c3ccccc3)C(c3ccccc3)C2)cc1 (stereo not given)	inactive
COc1ccc(C2CC(c3ccc(Br)cc3)=NN2c2ccccc2Cl)cc1 (stereo not given)	inactive
COc1ccc(C2CC(c3ccccc3Br)=NN2c2ccc(S(N)(=O)=O)cc2)cc1 (stereo not given)	inactive
COc1ccc(C2CC(c3ccc(Br)cc3)=NN2c2ccc(S(N)(=O)=O)cc2)cc1 (stereo not given)	inactive
COc1ccc(C2CC(c3ccc(Cl)cc3)=NN2c2ccccc2)cc1OC (stereo not given)	inactive
COc1ccc(C2CC(c3ccccc3C)=NN2c2ccc(S(N)(=O)=O)cc2)cc1 (stereo not given)	inactive
COc1ccc(C2CC(c3cccc(OC)c3)=NN2c2ccc(S(N)(=O)=O)cc2)cc1 (stereo not given)	inactive
CN(C)c1ccc(C2CC(c3ccc(Br)cc3)=NN2c2ccccc2)cc1 (stereo not given)	inactive
COc1ccc(C2=NN(c3ccc(Cl)cc3)C(c3ccccc3F)C2)cc1 (stereo not given)	inactive
COc1ccc(C2CC(c3ccccc3)=NN2c2ccc(C(=O)O)cc2)cc1 (stereo not given)	inactive
COc1ccc(C2CC(c3ccccc3)=NN2c2ccc(C(N)=O)cc2)cc1 (stereo not given)	inactive

SMILES	EC50
Cc1cccc(C2CC(c3ccccc3)=NN2c2ccc(S(N)(=O)=O)cc2)c1 (stereo not given)	inactive
COc1ccc(C2CC(c3ccccc3)=NN2c2ccc([N+](=O)[O-])cc2)cc1 (stereo not given)	inactive
COc1ccc(C2CC(c3cccc(C(F)(F)F)c3)=NN2c2ccc(S(N)(=O)=O)cc2)cc1 (stereo not given)	inactive
FC(F)(F)c1ccccc1C1CC(c2ccc(Br)cc2)=NN1c1ccccc1 (stereo not given)	inactive
COc1ccc(C2CC(c3cccc(F)c3)=NN2c2ccc(S(N)(=O)=O)cc2)cc1 (stereo not given)	inactive
COc1ccccc1C1CC(c2ccccc2)=NN1c1ccc(S(N)(=O)=O)cc1 (stereo not given)	inactive
NS(=O)(=O)c1ccc(N2N=C(c3ccccc3)CC2c2ccc(Cl)cc2)cc1 (stereo not given)	inactive
COc1ccc(C2CC(c3cccc(C)c3)=NN2c2ccc(S(N)(=O)=O)cc2)cc1 (stereo not given)	inactive
Cc1ccccc1C1CC(c2ccccc2)=NN1c1ccc(S(N)(=O)=O)cc1 (stereo not given)	inactive
COc1ccc(C2CC(C3CCCCC3)=NN2c2ccc(S(N)(=O)=O)cc2)cc1 (stereo not given)	inactive
CN(C)c1ccc(C2CC(c3ccc(F)cc3)=NN2c2ccccc2)cc1 (stereo not given)	inactive
COc1ccc(C2CC(c3ccc(N(C)C)cc3)=NN2c2ccc(S(N)(=O)=O)cc2)cc1 (stereo not given)	inactive
Fc1ccc(C2=NN(c3cccc(Br)c3)C(c3ccccc3)C2)cc1 (stereo not given)	inactive
COc1ccc(C2=NN(c3ccccc3)C(c3ccc(Cl)cc3)C2)cc1 (stereo not given)	inactive
CCc1ccc(C2=NN(c3ccc(S(N)(=O)=O)cc3)C(c3ccc(F)cc3)C2)cc1 (stereo not given)	inactive
Cc1ccccc1N1N=C(c2ccccc2)CC1c1ccc(N(C)C)cc1 (stereo not given)	inactive
Fc1ccccc1C1CC(c2ccc(Br)cc2)=NN1c1ccc(Br)cc1 (stereo not given)	inactive
COc1ccc(C2CC(c3ccc(C)cc3)=NN2c2ccc(S(N)(=O)=O)cc2)cc1 (stereo not given)	inactive
COc1ccc(C2CC(c3ccncc3)=NN2c2ccc(S(N)(=O)=O)cc2)cc1 (stereo not given)	inactive
COc1ccc(C2CC(c3cccnc3)=NN2c2ccc(S(N)(=O)=O)cc2)cc1 (stereo not given)	inactive
NS(=O)(=O)c1ccc(N2N=C(c3ccc(Cl)cc3)CC2c2ccccc2)cc1 (stereo not given)	inactive
COc1ccc(C2=NN(c3ccccc3)C(c3ccc(OC)c(OC)c3C(=O)O)C2)cc1 (stereo not given)	inactive
COc1ccc(C2CC(c3cccc(Cl)c3)=NN2c2ccc(S(N)(=O)=O)cc2)cc1 (stereo not given)	inactive

SMILES	EC50
NS(=O)(=O)c1ccc(N2N=C(c3ccccc3)CC2c2ccccc2Cl)cc1 (stereo not given)	inactive
COc1ccc(C2CC(c3ccccc3OC)=NN2c2ccc(S(N)(=O)=O)cc2)cc1 (stereo not given)	inactive
O=C(O)c1ccc(N2N=C(c3ccccc3)CC2c2ccccc2)cc1 (stereo not given)	inactive
O=S(=O)(c1ccc(N2N=C(c3ccc(Br)cc3)CC2c2ccccc2)cc1)C(F)F (stereo not given)	inactive
COc1ccc(C2CC(c3ccc(F)cc3)=NN2c2ccc(S(N)(=O)=O)cc2)cc1 (stereo not given)	inactive
Clc1ccc(N2N=C(c3ccccc3)CC2c2ccccc2)cc1 (stereo not given)	inactive
COc1ccc(C2=NN(c3ccc(Cl)c(Cl)c3)C(c3ccc(OC)cc3)C2)cc1 (stereo not given)	inactive
COc1ccc(C2CC(c3ccc(F)cc3)=NN2c2cccc(F)c2)cc1OC (stereo not given)	inactive
O=[N+]([O-])c1ccc(N2N=C(c3ccccc3)CC2c2ccccc2)cc1 (stereo not given)	inactive
NS(=O)(=O)c1ccc(N2N=C(c3ccccc3)CC2c2ccccc2)cc1 (stereo not given)	inactive
Cc1onc(-c2ccccc2)c1-c1ccc(S(N)(=O)=O)cc1	inactive
CN(C)c1ccc(C2CC(c3ccccc3)=NN2c2ccc([N+](=O)[O-])cc2)cc1 (stereo not given)	inactive
NS(=O)(=O)c1ccc(N2N=C(c3ccccc3)CC2c2ccccc2Br)cc1 (stereo not given)	inactive
COc1ccc(C2CC(c3ccccc3)=NN2c2cccc(S(N)(=O)=O)c2)cc1 (stereo not given)	inactive
COc1ccccc1N1N=C(c2ccccc2)CC1c1ccccc1 (stereo not given)	inactive
COc1ccc(C2CC(c3cccc(Br)c3)=NN2c2ccc(S(N)(=O)=O)cc2)cc1 (stereo not given)	inactive
COc1ccccc1C1CC(c2ccccc2)=NN1c1ccccc1 (stereo not given)	inactive
COc1ccc(C2CC(c3ccccc3)=NN2c2ccc(Cl)c(C(=O)O)c2)cc1OC (stereo not given)	inactive
COc1ccc(C2=NN(c3cccc(F)c3)C(c3ccc(OC)cc3)C2)cc1 (stereo not given)	inactive
COc1ccc(C2CC(c3ccc(C(F)(F)F)cc3)=NN2c2ccc(S(N)(=O)=O)cc2)cc1 (stereo not given)	inactive
NS(=O)(=O)c1ccc(N2N=C(c3ccccc3)CC2c2ccc(Br)cc2)cc1 (stereo not given)	inactive
Clc1cccc(N2N=C(c3ccccc3)CC2c2ccccc2)c1 (stereo not given)	inactive
COc1ccc(C2=NN(c3ccccc3)C(c3ccccc3C(F)(F)F)C2)cc1 (stereo not given)	inactive

SMILES	EC50
O=[N+]([O-])c1cccc(C2CC(c3ccccc3)=NN2c2ccccc2)c1 (stereo not given)	inactive
Brc1ccc(N2N=C(c3ccccc3)CC2c2ccccc2)cc1 (stereo not given)	inactive
COc1ccc(C2CC(c3ccccc3C(F)(F)F)=NN2c2ccc(S(N)(=O)=O)cc2)cc1 (stereo not given)	inactive
CN(C)c1ccc(C2CC(c3ccccc3)=NN2c2ccccc2)cc1 (stereo not given)	inactive
COc1ccc(C2CC(c3ccc(F)cc3)=NN2c2ccccc2)cc1OC (stereo not given)	inactive
Cc1cccc(N2N=C(c3ccccc3)CC2c2ccccc2)c1 (stereo not given)	inactive
COc1ccc(C2=NN(c3cccc(F)c3)C(c3ccc(Cl)cc3)C2)cc1 (stereo not given)	inactive
O=[N+]([O-])c1ccc(N2N=C(c3ccccc3)CC2c2ccc(O)cc2)cc1 (stereo not given)	inactive
COc1ccc(C2CC(c3ccccc3Cl)=NN2c2ccc(S(N)(=O)=O)cc2)cc1 (stereo not given)	inactive
Cc1ccc(C2CC(c3ccccc3)=NN2c2ccc(S(N)(=O)=O)cc2)cc1 (stereo not given)	inactive
FC(F)(F)c1cccc(N2N=C(c3ccc(Cl)cc3)CC2c2ccccc2Cl)c1 (stereo not given)	inactive
Cc1ccc(-c2cc(C(F)(F)F)nn2-c2ccc(S(N)(=O)=O)cc2)cc1	inactive
COc1ccc(C2CC(C(C)(C)C)=NN2c2ccc(S(N)(=O)=O)cc2)cc1 (stereo not given)	inactive
O=S(=O)(O)c1ccc(N2N=C(c3ccccc3)CC2c2ccccc2)cc1 (stereo not given)	inactive
NS(=O)(=O)c1ccc(N2N=C(c3ccc(Br)cc3)CC2c2ccc(F)cc2)cc1 (stereo not given)	inactive
CN(C)c1ccc(C2CC(c3ccc(Cl)cc3)=NN2c2ccccc2)cc1 (stereo not given)	inactive
COc1ccc(C2CC(c3cccc(N(C)C)c3)=NN2c2ccc(S(N)(=O)=O)cc2)cc1 (stereo not given)	inactive
O=[N+]([O-])c1cccc(C2CC(c3ccc(F)cc3)=NN2c2ccccc2)c1 (stereo not given)	inactive
NS(=O)(=O)c1ccc(N2N=C(c3ccccc3)CC2c2cccc(Cl)c2)cc1 (stereo not given)	inactive
COc1ccc(C2CC(c3ccc(F)cc3)=NN2c2cc(Cl)ccc2Cl)cc1 (stereo not given)	inactive
COc1ccc(C2CC(c3ccccc3F)=NN2c2ccc(S(N)(=O)=O)cc2)cc1 (stereo not given)	inactive
NS(=O)(=O)c1ccc(N2N=C(c3ccccc3)CC2c2cccc(Br)c2)cc1 (stereo not given)	inactive

same assay, conditions: Bead-based flow cytometry, Bodipy-FL-GTP binding to GST-Rac1; measured here: Ki calculated from EC50

SMILES	Ki [µM]
COc1ccc(C2CC(C)=NN2c2ccc(S(N)(=O)=O)cc2)cc1 (stereo not given)	0.01
COc1ccc(C2CC(c3ccc(Br)cc3)=NN2c2ccccc2Cl)cc1 (stereo not given)	0.06
COc1ccc(C2CC(c3ccccc3Br)=NN2c2ccc(S(N)(=O)=O)cc2)cc1 (stereo not given)	0.04
COc1ccc(C2CC(c3ccc(Cl)cc3)=NN2c2ccccc2)cc1OC (stereo not given)	0.01
COc1ccc(C2=NN(c3ccc(Cl)cc3)C(c3ccccc3F)C2)cc1 (stereo not given)	3.26
COc1ccc(C2=NN(c3ccccc3)C(c3ccc(Cl)cc3)C2)cc1 (stereo not given)	0.84
O=S(=O)(c1ccc(N2N=C(c3ccc(Br)cc3)CC2c2ccccc2)cc1)C(F)F (stereo not given)	0.79
COc1ccc(C2CC(c3ccc(F)cc3)=NN2c2cccc(F)c2)cc1OC (stereo not given)	3.03
Cc1ccc(-c2cc(C(F)(F)F)nn2-c2ccc(S(N)(=O)=O)cc2)cc1	3.91
